Experimental data published in patent publication US8735149B2, “Motor neurons developed from stem cells” (Hadasit Medical Research Services & Development Limited, priority 2008, dated 2014).

What was measured:
Type in all cases: cell-based, human
[1] = tested on: hESC-derived neural precursors; assay: Immunostaining for Olig-2 and Isl-1 after early neural induction and 3 weeks treatment; settings: treatment for 3 weeks
Protocol: To develop spheres enriched for neural precursors, hESC colonies were removed intact from the feeders, 6 days after passage, with collagenase IV. They were cultured in low adherent culture dishes (HydroCell) in DMEM/F12 (1:1) basal medium (Invitrogen), supplemented with 2% B27, 2 mM glutamine, 50 units/ml penicillin, 50 μg/ml streptomycin (all from Invitrogen), and 20 ng/ml rh-FGF-2 (Peprotech). In some experiments the medium was also supplemented with noggin 600-700 ng/ml (both from R&D) for 14-16 days. […] The medium was further supplemented with 1 μM retinoic acid (“RA”; Sigma) or 0.5 μM purmorphamine (“Pur”; a hedgehog agonist; Merck), or combination of Pur and RA, for 3 weeks. The following primary antibodies were used: polyclonal rabbit anti Isl1 (1:750, Abeam), mouse anti HB9 (1:50, DSHB), polyclonal goat anti CHAT (1:200, R&D), and goat anti olig2 (1:75, R&D). The following secondary antibodies: goat anti-rabbit conjugated to Cy-3 (1:1000, Jackson), goat anti-mouse conjugated to Cy-3 (1:500, Jackson), donkey anti goat conjugated to rhodamin (1:300, Jackson), Texas red or Alexa 488-conjugated goat anti-mouse IgM (1:100, Jackson), goat anti-rabbit IgG (1:100, Molecular Probes), goat anti-mouse IgG (1:100, Molecular Probes) or donkey anti-goat IgG (1:250, Jackson) were used as secondary antibodies, where appropriate.

[2] = tested on: hESC-derived neural precursors; assay: RT-PCR of Olig2, Ngn2 and HB9 transcripts after early neural induction and 2-3 weeks treatment
Protocol: (§1) To develop spheres enriched for neural precursors, hESC colonies were removed intact from the feeders, 6 days after passage, with collagenase IV. They were cultured in low adherent culture dishes (HydroCell) in DMEM/F12 (1:1) basal medium (Invitrogen), supplemented with 2% B27, 2 mM glutamine, 50 units/ml penicillin, 50 μg/ml streptomycin (all from Invitrogen), and 20 ng/ml rh-FGF-2 (Peprotech). In some experiments the medium was also supplemented with noggin 600-700 ng/ml (both from R&D) for 14-16 days.
The medium was further supplemented with 1 μM retinoic acid (“RA”; Sigma) or 0.5 μM purmorphamine (“Pur”; a hedgehog agonist; Merck), or combination of Pur and RA, for 3 weeks.
Total RNA was extracted from free-floating clusters after 2 and 3 weeks of treatment with RA, Pur or both. Total RNA was isolated using TRI-reagent (Sigma) followed by treatment with RNase-free DNase (Ambion). cDNA synthesis was carried out using Moloney murine leukemia virus (M-MLV) reverse transcriptase and random primers, according to the manufacturers' instructions (Promega). To analyze relative expression of different mRNAs, the amount of cDNA was normalized based on the signal from GAPDH mRNA. PCR was carried out using standard protocols with Taq DNA Polymerase (Promega). Amplification conditions were as follows: denaturation at 94° C. for 30 seconds, annealing at 55° C. for 30 seconds, and extension at 72° C. for 45 seconds. The number of cycles varied between 30 and 40, depending on particular mRNA abundance. Primer sequences (forward and reverse 5′-3′) were as shown in Table 1 (sequence identification number (SEQ ID NO.) according to the Sequence Listing is also provided):
Following this initial induction of early neural differentiation, the role of purmorphamine (Pur) and retinoic acid (RA) in further specification towards a caudal and ventral fate was examined. The neural precursors were further cultured 2-3 weeks with Pur, RA, or the combination of RA & Pur as well as with FGF2 as a control. Caudalization and ventralization were studied by analyzing the expression of Olig-2, Ngn2 and HB9 transcripts (FIGS. 2A, 2B and 2C). […] Without being bound by theory, induction of expression of these transcription factors by RA after 3 weeks (lane 6 in FIGS. 2A and 2C) may be related to RA-mediated induction of endogenous SHH gene expression.

hESC clusters = assay: Early neural induction of hESC clusters (PSA-NCAM expression); settings: chemically defined medium with FGF2 with or without noggin, two weeks
Protocol: as §1
To induce the differentiation of hESCs towards motor neurons, hESC clusters were initially cultured in chemically defined medium supplemented with FGF2 with or without noggin for two weeks. At the end of this culture period the clusters acquired round morphology typical of neural spheres.

[3] = tested on: hESC-derived neural precursors; assay: Immunostaining for HB9 after 1 week RA, 3 weeks treatment and 4-6 weeks maturation in MNM; settings: RA 1 week, then 3 weeks treatment, then maturation 4-6 weeks in MNM
Protocol: (§2) Alternatively, the spheres were cultured in the same medium supplemented with 1 μM RA (Sigma) for 1 week. Followed by further culturing the spheres in neurobasal medium (Invitrogen) supplemented with 2 mM L-glutamine (Invitrogen), 50 units/ml penicillin (Invitrogen), 50 μg/ml streptomycin (Invitrogen), 1% non-essential amino-acids (Invitrogen), N2 (Invitrogen), 1 μM db-cAMP (Sigma) and 1 μM RA (Sigma), or 0.5 μM Pur (Merck), or combination of RA and Pur, for 2-3 weeks.
(§3) The spheres were then further cultured in the same neurobasal medium supplemented with 2 mM L-glutamine, 50 units/ml penicillin, 50 μg/ml streptomycin, 1% non-essential amino-acids, 1% N2 (all from Invitrogen), 1 μM db-cAMP and 10 ng/ml of BDNF, GDNF and IGF-I (all from Peprotech). This medium was designated as motor neuron medium (MNM). The clusters could be cultured in suspension in this medium for prolonged periods (5 months). At various time points along this period the cells were plated on 10 μg/ml Poly-D-Lysine (Sigma) and 5 μg/ml laminin (Sigma) for terminal differentiation in the presence or absence of the γ-secretase inhibitor [N-(3,5-Difluorophenacetyl)-L-alanyl]-S-phenylglycine t-butyl ester (DAPT; 1 μM, Sigma).
The following primary antibodies were used: polyclonal rabbit anti Isl1 (1:750, Abeam), mouse anti HB9 (1:50, DSHB), polyclonal goat anti CHAT (1:200, R&D), and goat anti olig2 (1:75, R&D). […]

[4] = tested on: hESC-derived neural progenitors with caudal and ventral specification; assay: Terminal motor neuron differentiation of plated spheres in the presence of DAPT (HB9, CHAT immunostaining)
Protocol: as §3
(§4) The following primary antibodies were used: polyclonal rabbit anti Isl1 (1:750, Abeam), mouse anti HB9 (1:50, DSHB), polyclonal goat anti CHAT (1:200, R&D), and goat anti olig2 (1:75, R&D).
(§5) The following secondary antibodies: goat anti-rabbit conjugated to Cy-3 (1:1000, Jackson), goat anti-mouse conjugated to Cy-3 (1:500, Jackson), donkey anti goat conjugated to rhodamin (1:300, Jackson), Texas red or Alexa 488-conjugated goat anti-mouse IgM (1:100, Jackson), goat anti-rabbit IgG (1:100, Molecular Probes), goat anti-mouse IgG (1:100, Molecular Probes) or donkey anti-goat IgG (1:250, Jackson) were used as secondary antibodies, where appropriate.
To further enhance the motor neuron differentiation, caudalization and ventralization were followed by blocking Notch signaling with the γ-secretase inhibitor DAPT. After 2-3 weeks of maturation in MNM, the spheres were plated on laminin and terminally differentiated in the presence of DAPT for 7-10 days.

[5] = tested on: hESC-derived neural spheres; assay: Olig-2, HB9 and CHAT expression after caudalization, ventralization and maturation in MNM
Protocol: as §2, §3, §4, §5
In a similar set of experiments, after initial early neural induction in the presence of FGF2, the spheres were induced to take a caudal fate by 7 days treatment with RA. […]

[6] = DAPT 1 μM for 7-10 days after 2-3 weeks maturation in MNM, plated on laminin
[7] = RA 7 days, Pur with or without RA 2-3 weeks, 4 weeks maturation in MNM, plated on laminin, no DAPT

Compound | cells expressing Isl-1 [1] | cells expressing Olig-2 [1] | expression of HB9 transcripts ([2]; after 2 weeks of treatment) | expression of Ngn2 transcripts ([2]; after 2 weeks of treatment) | expression of Olig-2 transcripts ([2]; after 2 weeks of treatment) | expression of HB9 transcripts ([2]; after 3 weeks of treatment) | expression of Ngn2 transcripts ([2]; after 3 weeks of treatment) | expression of Olig-2 transcripts ([2]; after 3 weeks of treatment) | neural precursor cells expressing PSA-NCAM within the clusters (hESC clusters) | cells expressing HB9 protein [3] | increase of percentage of HB9+ cells [4, 6] | percentage of HB9+ cells [4, 6] | neurite outgrowth and branching from CHAT expressing cells ([4]; DAPT during terminal differentiation) | cells within the spheres expressing Olig-2 ([5]; 7 days RA, then Pur in the presence or absence of RA for 2-3 weeks) | cells expressing CHAT [5, 7] | cells expressing HB9 [5, 7]
FGF2: basic fibroblast growth factor, used for early neural induction and as control treatment | not expressed | did not induce the expression | did not induce the expression | did not induce the expression | did not induce the expression | did not induce the expression | did not induce the expression | did not induce the expression | highly enriched | not expressed |  |  |  |  |  | 
C[C@H](NC(=O)Cc1cc(F)cc(F)c1)C(=O)N[C@H](C(=O)OC(C)(C)C)c1ccccc1 [DAPT, [N-(3,5-Difluorophenacetyl)-L-alanyl]-S-phenylglycine t-butyl ester] |  |  |  |  |  |  |  |  |  |  | 1.5-2 folds | 40-70 % of total cells | significantly augmented |  |  | 
c1ccc2c(Oc3nc(Nc4ccc(N5CCOCC5)cc4)c4ncn(C5CCCCC5)c4n3)cccc2c1 [Pur, purmorphamine] |  |  | induced the expression |  | induced the expression | induced the expression |  | induced the expression |  | 66 % of total cells |  |  |  | 23-54 % of the cells | 20-50 % of the cells | 20-50 % of the cells
